Test results: patent US10450297B2, “Sulfonyl amide derivatives for the treatment of abnormal cell growth” (Pfizer, Inc., priority 2007, dated 2019)
pIC50: −log10 of the molar value.

These compounds were tested against FAK kinase (catalytic construct FAK(410-689)) (Homo sapiens (Human), UniProt Q05397) (assay: FAKcd kinase ELISA (inhibition of poly-glu-tyr phosphorylation by FAK(410-689))). Conditions: 50 μM final ATP.
Assay type: biochemical

Chain of FAK kinase (catalytic construct FAK(410-689)) (Q05397 410-689): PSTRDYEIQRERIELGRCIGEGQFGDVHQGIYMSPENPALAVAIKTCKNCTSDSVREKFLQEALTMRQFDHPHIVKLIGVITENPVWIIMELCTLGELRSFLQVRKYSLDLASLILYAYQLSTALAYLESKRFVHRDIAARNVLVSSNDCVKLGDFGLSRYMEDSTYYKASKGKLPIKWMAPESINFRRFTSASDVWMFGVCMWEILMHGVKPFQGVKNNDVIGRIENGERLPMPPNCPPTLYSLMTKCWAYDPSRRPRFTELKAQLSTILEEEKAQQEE

| pIC50 | SMILES |
| --- | --- |
| 9.01 | C[C@H](N)c1ccc(Nc2ncc(C(F)(F)F)c(NCc3cccc(N(C)S(C)(=O)=O)c3)n2)cc1 [Compound 365, N-[3-({[2-({4-[(1S)-1-aminoethyl]phenyl}amino)-5-(trifluoromethyl)pyrimidin-4-yl]amino}methyl)phenyl]-N-methylmethanesulfonamide] |
| 8.66 | CC(=O)NCC(=O)Nc1cccc(Nc2ncc(C(F)(F)F)c(NCc3ncccc3N(C)S(C)(=O)=O)n2)c1 [Compound 398, N~2~-acetyl-N-[3-({4-[({3-[methyl(methylsulfonyl)amino]pyridin-2-yl}methyl)amino]-5-(trifluoromethyl)pyrimidin-2-yl}amino)phenyl]glycinamide] |
| 8.94 | CN(c1ncccc1CNc1nc(Nc2ccc(C(=O)N3CC[C@H](O)C3)cc2)ncc1C(F)(F)F)S(C)(=O)=O [Compound 267, N-{3-[({2-[(4-{[(3S )-3-hydroxypyrrolidin-1-yl]carbonyl}phenyl)amino]-5-(trifluoromethyl)pyrimidin-4-yl}amino)methyl]pyridin-2-yl}-N-methylmethane-sulfonamide] |
| 9.22 | CCNC(=O)c1ccc(Nc2ncc(C(F)(F)F)c(NCc3ccc(C)nc3N(C)S(C)(=O)=O)n2)cc1 [Compound 89, N-ethyl-4-({4-[({6-methyl-2-[methyl(rnethylsu!fonyl)amino]pyridin-3-yl}methyl)amino]-5-(trifluoromethyl)pyrimidin-2-yl}amino)benzamide] |
| 9.22 | CN(c1ncccc1CNc1nc(Nc2ccc(C(=O)N3CC[C@H](F)C3)cc2)ncc1C(F)(F)F)S(C)(=O)=O (stereo in doubt) [Compound 235, N-[3-({[2-({4-[(3-fluoropyrrolidin-1-yl)carbonyl]phenyl}amino)-5-(trifluoromethyl)pyrimidin-4-yl]amino}methyl)pyridin-2-yl]-N-methylmethane-sulfonamide] |
| 9.42 | CN(c1cccc(CNc2nc(Nc3ccc(C(N)=O)cc3)ncc2C(F)(F)F)c1)S(C)(=O)=O [Compound 99, 4-{[4-({3-[methyl(methylsulfonyl)amino]benzyl}amino)-5-(trifluoromethyl)pyrimidin-2-yl]amino}benzamide] |
| 9.22 | Cc1ccc(CNc2nc(Nc3ccc(C(N)=O)cc3)ncc2C(F)(F)F)c(N(C)S(C)(=O)=O)c1 [Compound 109, 4-{[4-({4-methyl-2-[methyl(methylsulfonyl)amino]benzyl}amino)-5-(trifluoromethyl)pyrimidin-2-yl]amino}benzamide] |
| 8.88 | CN(c1cccnc1CNc1nc(Nc2cccc(C(N)=O)c2)ncc1C(F)(F)F)S(C)(=O)=O [Compound 295, 3-({4-[({3-[methyl(methylsulfonyl)amino]pyridin-2-yl}methyl)amino]-5-(trifluoromethyl)pyrimidin-2-yl}amino)benzamide] |
| 8.82 | COCCCNC(=O)c1cccc(Nc2ncc(C(F)(F)F)c(NCc3cccnc3N(C)S(C)(=O)=O)n2)c1 [Compound 149, N-(3-methoxypropyl)-3-({4-[({2-[methyl(methylsulfonyl)amino]pyridin-3-yl}methyl)amino]-5-(trifluoromethyl)pyrimidin-2-yl}amino)benzamide] |
| > 9.23 | Cc1cc(Nc2ncc(C(F)(F)F)c(NCc3nccnc3N(C)S(C)(=O)=O)n2)ccc1C(N)=O [Compound 338, 2-methyl-4-({4-[({3-[methyl(methylsulfonyl)amino]pyrazin-2-yl}methyl)amino]-5-(trifluoromethyl)pyrimidin-2-yl}amino)benzamide] |
| 8.86 | CN(c1ncccc1CNc1nc(Nc2ccc(N3CCCS3(=O)=O)cc2)ncc1C(F)(F)F)S(C)(=O)=O [Compound 27, N-[3-({[2-{[4-(1,1-dioxidoisothiazolidin-2-yl)phenyl]amino}-5-(trifluoromethyl)pyrimidin-4-yl]amino}methyl)pyridin-2-yl]-N-methylmethane-sulfonamide] |
| > 9.23 | CN(c1nccnc1CNc1nc(Nc2ccc(C(N)=O)c(Cl)c2)ncc1C(F)(F)F)S(C)(=O)=O [Compound 360, 2-chloro-4-({4-[({3-[methyl(methylsulfonyl)amino]pyrazin-2-yl}methyl)amino]-5-(trifluoromethyl)pyrimidin-2-yl}amino)benzamide] |
| 6.30 | CN(c1ncccc1CNc1nc(NC2CCC2)ncc1C(F)(F)F)S(C)(=O)=O [Compound 38, N-[3-({[2-(cyclobutylamino)-5-(trifluoromethyl)pyrimidin-4-yl]amino}methyl)pyrldin-2-yl]-N-methylmethane-sulfonamide] |
| 9.05 | Cc1cc(C(N)=O)ccc1Nc1ncc(C(F)(F)F)c(NCc2nccnc2N(C)S(C)(=O)=O)n1 [Compound 344, 3-methyl-4-({4-[({3-[methyl(methylsulfonyl)amino]pyrazin-2-yl}methyl)amino]-5-(trifluoromethyl)pyrimidin-2-yl}amino)benzamide] |
| 8.90 | CN(c1ncccc1CNc1nc(Nc2ccncc2)ncc1C(F)(F)F)S(C)(=O)=O [Compound 285, N-methyl-N-[3-({[2-(pyridin-4-ylamino)-5-(trifluoromethyl)pyrimidin-4-yl]amino}methyl)pyridin-2-yl]methanesulfonamide] |
| 8.72 | CN(c1ncccc1CNc1nc(Nc2cccc(C(=O)NCc3ccccn3)c2)ncc1C(F)(F)F)S(C)(=O)=O [Compound 139, 3-({4-[({2-[methyl(methylsulfonyl)amino]pyridin-3-yl}methyl)amino]-5-(trifluoromethyl)pyrimidin-2-yl}amino)-N-(pyridin-2-ylmethyl)benzamide] |
| 6.73 | CN(c1ncccc1CNc1nc(NC2CCNCC2)ncc1C(F)(F)F)S(C)(=O)=O [Compound 44, N-methyl-N-[3-({[2-(piperidin-4-ylamino)-5-(trifluoromethyl)pyrimidin-4-yl]amino}methyl)pyridin-2-yl]methanesulfonamide] |
| 7.74 | Cc1cc(Nc2ncc(C(F)(F)F)c(NCc3cccnc3N(C)S(C)(=O)=O)n2)on1 [Compound 289, N-methyl-N-{3-[({2-[(3-methylisoxazol-5-yl)amino)-5-(trifluoromethyl)pyrimidin-4-yl}amino)methyl]pyridin-2-yl}methanesulfonamide] |
| > 9.23 | CN(c1ncccc1CNc1nc(Nc2ccc(CN3CCOCC3)cc2)ncc1C(F)(F)F)S(C)(=O)=O [Compound 349, N-methyl-N-[3-({[2-{[4-(morpholin-4-ylmethyl)phenyl]amino}-5-(trifluoromethyl)pyrimidin-4-yl]amino}methyl)pyridin-2-yl]methanesuifonamide] |
| 7.88 | CS(=O)(=O)c1cccc(CNc2nc(Nc3ccc(S(N)(=O)=O)cc3)ncc2C(F)(F)F)c1 [Compound 18, 4-{[4-{[3-(methylsulfonyl)benzyl]amino}-5-(trifluoromethyl)pyrimidin-2-yl]amino}benzene-sulfonamide] |
| 8.71 | CN(c1cccnc1CNc1nc(Nc2cc(C(N)=O)ccc2F)ncc1C(F)(F)F)S(C)(=O)=O [Compound 378, 4-fluoro-3-({4-[({3-[methyl(methylsulfonyl)amino]pyridin-2-yl}methyl)amino]-5-(trifluoromethyl)pyrimidin-2-yl}amino)benzamide] |
| > 9.23 | CN(c1ncccc1CNc1nc(Nc2ccc(N3CCOCC3)cc2)ncc1C(F)(F)F)S(C)(=O)=O [Compound 291, N-methyl-N-{3-[({2-[(4-morpholin-4-ylphenyl)amino]-5-(trifluoromethyl)pyrimidin-4-yl}amino)methyl]pyridin-2-yl}methanesulfonamide] |
| 9.05 | Cc1cc(C(N)=O)ccc1Nc1ncc(C(F)(F)F)c(NCc2cccc(N(C)S(C)(=O)=O)c2)n1 [Compound 346, 3-methyl-4-{[4-({3-[methyl(methylsulfonyl)amino]benzyl}amino)-5-(trifluoromethyl)pyrimidin-2-yl]amino}benzamide] |
| 6.81 | CN(c1cccc(CNc2nc(Nc3ccc(S(C)(=O)=O)nc3)ncc2C(F)(F)F)c1)S(C)(=O)=O [Compound 26, N-methyl-N-[3-({[2-{[6-(methylsulfonyl)pyridin-3-yl]amino}-5-(trifluoromethyl)pyrimidin-4-yl]amino}methyl)phenyl] methanesulfonamide] |
| 8.59 | CN1CCN(C(=O)c2cccc(Nc3ncc(C(F)(F)F)c(NCc4cccnc4N(C)S(C)(=O)=O)n3)c2)CC1 [Compound 199, N-methyl-N-[3-({[2-({3-[(4-methylpiperazin-1-yl)carbonyl]phenyl}amino)-5-(trifluoromethyl)pyrimidin-4-yl]amino}methyl)pyridin-2-yl]methanesulfonamide] |
| > 9.23 | COCCNCc1ccc(Nc2ncc(C(F)(F)F)c(NCc3cccnc3N(C)S(C)(=O)=O)n2)cc1 [Compound 388, N-{3-[({2-((4-{[(2-methoxyethyl)amino]methyl}phenyl)amino]-5-(trifluoromethyl)pyrimidin-4-yl}amino)methyl]pyridin-2-yl}-N-methylmethane-sulfonamide] |
| 6.73 | CCn1nccc1Nc1ncc(C(F)(F)F)c(NCc2cccnc2N(C)S(C)(=O)=O)n1 [Compound 91, N-{3-[({2-[(1-ethyl-1H-pyrazol-5-yl)amino]-5-(trifluoromethyl)pyrimidin-4-yl}amino)methyl]pyridin-2-yl}-N-methylmethane-sulfonamide] |
| 9.22 | CN(c1ncccc1CNc1nc(Nc2ccc(C(=O)OC(C)(C)C)cc2)ncc1C(F)(F)F)S(C)(=O)=O [Compound 219, tert-butyl 4-({4-[({2-[methyl(methylsulfonyl)amino]pyridin-3-yl}methyl)amino]-5-(trifluoromethyl)pyrimidin-2-yl}amino)benzoate] |
| 9.22 | CN(c1nccnc1CNc1nc(Nc2ccc(C(N)=O)cc2)ncc1C(F)(F)F)S(C)(=O)=O [Compound 71, 4-({4-[({3-[methyl(methylsulfonyl)amino]pyrazin-2-yl}methyl)amino]-5-(trifluoromethyl)pyrimidin-2-yl}amino)benzamide] |
| 8.58 | CC(=O)NCCNC(=O)c1ccc(Nc2ncc(C(F)(F)F)c(NCc3cccnc3N(C)S(C)(=O)=O)n2)cc1 [Compound 245, N-[2-(acetylamino)ethyl]-4-({4-[({2-[methyl(methylsulfonyl)amino]pyridin-3-yl}methyl)amino]-5-(trifluoromethyl)pyrimidin-2-yl}amino)benzamide] |
